The target of assay [1] is Phosphatidylinositol 3-kinase catalytic subunit type 3 (Homo sapiens) (UniProt Q8NEB9). Kind of assay: Inhibition of VPS34 (unknown origin) assessed as residual activity at 1000 nM by KINOMEscan analysis relative to control.
The target of assay [2] is Cyclin-dependent kinase 4 (Homo sapiens) (UniProt P11802). Kind of assay: Inhibition of CDK4 (unknown origin) assessed as residual activity at 1000 nM by KINOMEscan analysis relative to control.
Assay [3] deals with Phosphatidylinositol 4-phosphate 5-kinase type-1 alpha (Homo sapiens) (UniProt Q99755). The experiment in a line: Inhibition of PIP5K1A (unknown origin) assessed as residual activity at 100 nM by KINOMEscan analysis relative to control.
The target of assay [4] is Serine/threonine-protein kinase SBK1 (Homo sapiens) (UniProt Q52WX2). Kind of assay: Inhibition of SBK1 (unknown origin) assessed as residual activity at 100 nM by KINOMEscan analysis relative to control.
The subject of assay [5] is Mast/stem cell growth factor receptor Kit (Homo sapiens), P10721 [V559D,T670I]. Kind of assay: Inhibition of KIT V559D/T670I mutant (unknown origin) assessed as residual activity at 100 nM by KINOMEscan analysis relative to control.
The subject of assay [6] is Phosphatidylinositol 4,5-bisphosphate 3-kinase catalytic subunit alpha isoform (Homo sapiens), P42336 [I800L]. Kind of assay: Inhibition of PIK3CA I800L mutant (unknown origin) assessed as residual activity at 100 nM by KINOMEscan analysis relative to control.
Assay [7] addresses Myosin light chain kinase 3 (Homo sapiens) (UniProt Q32MK0). Kind of assay: Inhibition of MLCK (unknown origin) assessed as residual activity at 100 nM by KINOMEscan analysis relative to control.
Assay [8] has as its target 5'-AMP-activated protein kinase catalytic subunit alpha-1 (Homo sapiens) (UniProt Q13131). Kind of assay: Inhibition of AMPK-alpha1 (unknown origin) assessed as residual activity at 100 nM by KINOMEscan analysis relative to control.
For assay [9], the target named is CDK4/Cyclin D3 (Homo sapiens) (UniProt P11802+P30281). The experiment in a line: Inhibition of CDK4-cyclin D3 (unknown origin) assessed as residual activity at 100 nM by KINOMEscan analysis relative to control. The class given is protein-complex assay.
Assay [10] addresses Activin receptor type-2A (Homo sapiens) (UniProt P27037). The experiment in a line: Inhibition of ACVR2A (unknown origin) assessed as residual activity at 100 nM by KINOMEscan analysis relative to control.
For assay [11], the target named is Phosphatidylinositol 4,5-bisphosphate 3-kinase catalytic subunit beta isoform (Homo sapiens) (UniProt P42338). The experiment in a line: Inhibition of PIK3CB (unknown origin) assessed as residual activity at 100 nM by KINOMEscan analysis relative to control.
Assay [12] addresses Serine/threonine-protein kinase MARK1 (Homo sapiens) (UniProt Q9P0L2). Kind of assay: Inhibition of MARK1 (unknown origin) assessed as residual activity at 100 nM by KINOMEscan analysis relative to control.
The target in assay [13] is T1, Mitogen-activated protein kinase kinase kinase kinase 2 (Homo sapiens) (UniProt Q12851).
T1 sequence (whole entry): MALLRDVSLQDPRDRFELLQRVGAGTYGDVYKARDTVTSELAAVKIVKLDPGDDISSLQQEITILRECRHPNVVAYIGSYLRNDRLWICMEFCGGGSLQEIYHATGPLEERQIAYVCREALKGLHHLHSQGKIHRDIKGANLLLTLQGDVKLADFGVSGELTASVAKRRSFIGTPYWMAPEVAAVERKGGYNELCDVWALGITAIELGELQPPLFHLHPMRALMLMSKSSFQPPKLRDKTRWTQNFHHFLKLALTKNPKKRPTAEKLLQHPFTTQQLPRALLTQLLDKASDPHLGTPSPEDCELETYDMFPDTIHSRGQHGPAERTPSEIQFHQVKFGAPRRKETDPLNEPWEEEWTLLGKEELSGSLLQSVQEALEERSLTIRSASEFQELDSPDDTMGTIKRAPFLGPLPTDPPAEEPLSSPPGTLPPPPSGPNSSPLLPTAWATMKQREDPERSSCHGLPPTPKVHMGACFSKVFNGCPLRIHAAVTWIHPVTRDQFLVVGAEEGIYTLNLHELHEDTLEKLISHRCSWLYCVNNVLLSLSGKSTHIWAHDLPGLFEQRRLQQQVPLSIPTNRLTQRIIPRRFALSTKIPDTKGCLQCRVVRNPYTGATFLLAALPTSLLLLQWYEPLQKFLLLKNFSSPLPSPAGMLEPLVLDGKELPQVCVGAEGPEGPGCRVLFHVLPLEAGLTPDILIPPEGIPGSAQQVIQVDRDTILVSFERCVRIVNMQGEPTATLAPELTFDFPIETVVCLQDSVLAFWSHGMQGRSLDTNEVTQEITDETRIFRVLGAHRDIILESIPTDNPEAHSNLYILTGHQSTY
Kind of assay: Inhibition of MAP4K2 (unknown origin) assessed as residual activity at 100 nM by KINOMEscan analysis relative to control.

Assay [14] deals with T2, Serine/threonine-protein kinase Sgk3 (Homo sapiens) (UniProt Q96BR1).
T2 sequence (whole entry): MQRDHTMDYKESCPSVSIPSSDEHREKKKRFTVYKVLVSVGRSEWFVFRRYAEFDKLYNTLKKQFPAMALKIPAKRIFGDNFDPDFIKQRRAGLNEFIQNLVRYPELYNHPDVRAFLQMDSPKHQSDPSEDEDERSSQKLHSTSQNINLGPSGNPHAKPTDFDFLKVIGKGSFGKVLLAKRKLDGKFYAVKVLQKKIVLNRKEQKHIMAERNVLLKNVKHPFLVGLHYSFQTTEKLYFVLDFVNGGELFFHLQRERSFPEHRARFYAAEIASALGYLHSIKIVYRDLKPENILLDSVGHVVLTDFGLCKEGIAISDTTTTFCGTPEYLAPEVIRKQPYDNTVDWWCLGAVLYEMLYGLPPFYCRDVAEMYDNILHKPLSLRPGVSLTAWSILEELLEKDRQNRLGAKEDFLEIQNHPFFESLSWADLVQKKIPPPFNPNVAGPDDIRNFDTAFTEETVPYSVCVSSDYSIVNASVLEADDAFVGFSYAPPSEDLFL
The experiment in a line: Inhibition of SGK3 (unknown origin) assessed as residual activity at 100 nM by KINOMEscan analysis relative to control.

In assay [15] the test system is GTPase KRas (Homo sapiens), P01116 [G12C]. The experiment in a line: Stabilization of N-terminal GST-tagged recombinant human KRAS G12C mutant (1 to 169 residues) expressed in Escherichia coli assessed as change in melting temperature at 100 uM with heating from 25 to 85 degreeC by thermal shift assay.

The structures appear in SMILES notation.

The ΔTm is the change in melting temperature against a reference sample.

On to `COc1cc2nc(C)nc(N[C@H](C)c3cccc(-c4cn[nH]c4)c3)c2cc1OC`, for which the figures for the Activity in [1] and in [2] were 100% and 92%, respectively.
For `COc1cc2ncnc(N[C@H](C)c3cccc4ccccc34)c2cc1OC`, the Activity in assay [3] came to 90%; in [4], 81%; in [5], 92%; in [6] it was 98%; in assay [7] it was 97%; in assay [8] it was 92%. Besides, the Activity worked out at 100% in assay [9]; 94% in [10]; 72% in assay [11]; 100% in assay [12]; 83% in assay [13]; 100% in [14].
On to `CNCc1ccccc1-c1csc([C@@H](C)Nc2nc(C)nc3cc(OC)c(OC)cc23)c1` [BAY-293], for which the ΔTm in [15] is 0.21 °C.

These data come from ChEMBL document CHEMBL5678818, “Discovery of potent SOS1 inhibitors that block RAS activation via disruption of the RAS-SOS1 interaction” (Proc Natl Acad Sci U S A, 2019).
